{"source": "patent US12084451B2", "about": "“Compositions and methods for reducing tactile dysfunction, anxiety, and social impairment” (President and Fellows of Harvard College, priority 2018, dated 2024)", "key": {"[1]": {"target": "hGABAA α2β3γ2 (Homo sapiens, UniProt P18507+P28472+P47869)", "sequence (P47869 29-451)": "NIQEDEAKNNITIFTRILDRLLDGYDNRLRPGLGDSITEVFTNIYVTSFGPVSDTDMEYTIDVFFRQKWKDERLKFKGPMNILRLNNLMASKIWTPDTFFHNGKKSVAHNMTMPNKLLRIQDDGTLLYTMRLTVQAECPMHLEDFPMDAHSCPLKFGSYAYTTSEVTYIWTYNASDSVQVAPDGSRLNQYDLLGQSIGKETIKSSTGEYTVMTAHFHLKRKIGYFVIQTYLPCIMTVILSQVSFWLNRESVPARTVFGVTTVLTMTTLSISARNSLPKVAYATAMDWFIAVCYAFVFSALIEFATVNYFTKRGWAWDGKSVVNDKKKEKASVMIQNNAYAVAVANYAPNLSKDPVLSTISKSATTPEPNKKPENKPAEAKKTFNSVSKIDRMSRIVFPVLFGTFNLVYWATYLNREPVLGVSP", "sequence (P28472 26-473)": "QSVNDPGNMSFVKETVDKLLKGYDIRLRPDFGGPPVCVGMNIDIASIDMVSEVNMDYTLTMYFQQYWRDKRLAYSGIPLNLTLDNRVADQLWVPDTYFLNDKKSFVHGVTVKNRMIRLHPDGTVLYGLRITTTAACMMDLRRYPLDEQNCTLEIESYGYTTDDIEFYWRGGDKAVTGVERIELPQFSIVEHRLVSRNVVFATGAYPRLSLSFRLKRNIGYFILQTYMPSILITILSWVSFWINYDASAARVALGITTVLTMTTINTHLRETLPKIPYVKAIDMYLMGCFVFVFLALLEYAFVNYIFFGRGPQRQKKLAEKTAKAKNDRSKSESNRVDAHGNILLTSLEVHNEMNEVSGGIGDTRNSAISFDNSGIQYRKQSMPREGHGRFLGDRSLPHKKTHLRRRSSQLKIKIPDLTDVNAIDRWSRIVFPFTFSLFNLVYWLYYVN", "sequence (P18507 40-475)": "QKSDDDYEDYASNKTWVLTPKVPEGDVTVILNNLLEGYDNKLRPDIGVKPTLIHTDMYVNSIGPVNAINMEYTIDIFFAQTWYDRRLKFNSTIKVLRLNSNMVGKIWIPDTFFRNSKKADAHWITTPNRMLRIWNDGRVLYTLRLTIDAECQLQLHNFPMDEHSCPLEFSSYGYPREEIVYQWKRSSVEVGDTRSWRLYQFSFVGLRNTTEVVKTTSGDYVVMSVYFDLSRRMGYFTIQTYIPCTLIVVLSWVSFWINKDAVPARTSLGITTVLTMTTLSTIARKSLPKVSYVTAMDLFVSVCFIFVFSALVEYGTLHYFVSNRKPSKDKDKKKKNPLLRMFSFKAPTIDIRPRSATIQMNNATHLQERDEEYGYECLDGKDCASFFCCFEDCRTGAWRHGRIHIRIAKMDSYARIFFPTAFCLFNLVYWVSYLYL", "assay": "hGABAA IonFlux HT PAM Assay, α2β3γ2", "assay_type": "cell-based", "conditions": "normalized to baseline peak current induced by EC20 GABA (0.8 μM) for 2 seconds", "from_the_text": "(§1) Ligand-gated ion channels targeted were hGABAA α1β3γ2 and hGABAA α2β3γ2.\n(§2) Electrophysiological assays conducted to profile nine (9) compounds for activities on the on channel targets listed above for Positive Allosteric Modulator (PAM) activities using the IonFlux HT electrophysiological platform.\nThe parameters measured are described in the Data Analysis section. […] Open circles represent data that has been excluded from the curve fitting. Where no curve fit was possible, n/c (not calculable) is listed.\n(§3) All wells included a final DMSO concentration of 0.33% including all control wells.\n(§4) All recordings were obtained from a holding potential of −60 mV. The compound addition sequence that was used for all additions was the same for all assays. […] The process was repeated with the next ascending concentration of test compound (FIG. 1).\n(§5) All data were first exported to an Excel compatible data file and then analyzed using Graph Pad Prism software."}, "[2]": {"target": "hGABAA α1β3γ2 (Homo sapiens, UniProt P14867+P18507+P28472)", "sequence (P14867 28-456)": "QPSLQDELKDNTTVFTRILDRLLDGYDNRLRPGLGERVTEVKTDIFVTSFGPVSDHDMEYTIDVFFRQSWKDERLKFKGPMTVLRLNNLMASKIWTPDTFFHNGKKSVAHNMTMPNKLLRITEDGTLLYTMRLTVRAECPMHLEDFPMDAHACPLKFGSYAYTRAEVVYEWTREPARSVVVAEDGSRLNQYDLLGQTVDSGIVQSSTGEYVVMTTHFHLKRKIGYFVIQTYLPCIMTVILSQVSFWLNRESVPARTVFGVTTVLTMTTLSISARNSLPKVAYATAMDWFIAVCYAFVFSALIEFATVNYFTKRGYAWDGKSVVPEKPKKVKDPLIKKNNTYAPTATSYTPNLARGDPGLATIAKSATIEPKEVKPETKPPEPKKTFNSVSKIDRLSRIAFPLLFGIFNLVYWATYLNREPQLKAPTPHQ", "sequence (P28472 26-473)": "as the sequence (P28472 26-473) above", "sequence (P18507 40-475)": "as the sequence (P18507 40-475) above", "assay": "hGABAA IonFlux HT PAM Assay, α1β3γ2", "assay_type": "cell-based", "from_the_text": "as §1, §2\nThe parameters measured are described in the Data Analysis section.\nas §3, §4, §5"}}}
{"smiles": "Cc1ccc(-c2nc3ccc(C)cn3c2CC(=O)N(C)C)cc1", "note": "[Zolpidem]", "values": [{"measurement": "Mean Maximal Effect (% of Control)", "setting": "[1]", "result": "304 % of Control"}, {"measurement": "(%) Control mean", "setting": "[2]; 0.001 μM + EC20 GABA", "result": 110.7, "unit": "% Control"}, {"measurement": "(%) Control n1", "setting": "[2]; 0.001 μM + EC20 GABA", "result": 116.2, "unit": "% Control"}, {"measurement": "(%) Control n2", "setting": "[2]; 0.001 μM + EC20 GABA", "result": 105.2, "unit": "% Control"}, {"measurement": "(%) Control mean", "setting": "[2]; 0.01 μM + EC20 GABA", "result": 141.9, "unit": "% Control"}, {"measurement": "(%) Control n1", "setting": "[2]; 0.01 μM + EC20 GABA", "result": 144.3, "unit": "% Control"}, {"measurement": "(%) Control n2", "setting": "[2]; 0.01 μM + EC20 GABA", "result": 139.4, "unit": "% Control"}, {"measurement": "(%) Control mean", "setting": "[2]; 0.1 μM + EC20 GABA", "result": 267.3, "unit": "% Control"}, {"measurement": "(%) Control n1", "setting": "[2]; 0.1 μM + EC20 GABA", "result": 278.5, "unit": "% Control"}, {"measurement": "(%) Control n2", "setting": "[2]; 0.1 μM + EC20 GABA", "result": 256.1, "unit": "% Control"}, {"measurement": "(%) Control mean", "setting": "[2]; 1 μM + EC20 GABA", "result": 292.4, "unit": "% Control"}, {"measurement": "(%) Control n1", "setting": "[2]; 1 μM + EC20 GABA", "result": 294.8, "unit": "% Control"}, {"measurement": "(%) Control n2", "setting": "[2]; 1 μM + EC20 GABA", "result": 290.1, "unit": "% Control"}, {"measurement": "(%) Control mean", "setting": "[2]; 10 μM + EC20 GABA", "result": 318.1, "unit": "% Control"}, {"measurement": "(%) Control n1", "setting": "[2]; 10 μM + EC20 GABA", "result": 326.1, "unit": "% Control"}, {"measurement": "(%) Control n2", "setting": "[2]; 10 μM + EC20 GABA", "result": 310.1, "unit": "% Control"}, {"measurement": "(%) Control mean", "setting": "[2]; 100 μM + EC20 GABA", "result": 330.6, "unit": "% Control"}, {"measurement": "(%) Control n1", "setting": "[2]; 100 μM + EC20 GABA", "result": 349.7, "unit": "% Control"}, {"measurement": "(%) Control n2", "setting": "[2]; 100 μM + EC20 GABA", "result": 311.6, "unit": "% Control"}, {"measurement": "Mean Maximal Effect (% of Control)", "setting": "[2]; normalized to baseline peak current induced by EC20 GABA (1 μM) for 2 seconds", "result": "331 % of Control"}]}
